Test results reported in patent US10458996B1, “Methods for determining clinical response to TNF-alpha and/or JAK inhibitors in subjects with inflammatory diseases” (Beth Israel Deaconess Medical Center, Inc., priority 2016, dated 2019).

Key:
[1] = test system: patients with moderate-to-severe CD; conditions: week 24 of intervention; cited from earlier work
[2] = test system: biopsy samples from patients with IBD; assay: Cytokine profiles of patient biopsy cultures in response to treatment with various agents (Example 2); format: cell-based, human
Description: From each patient, intestinal mucosal biopsies were minced into several pieces and distributed in 8 wells of a 96-well plate in 250 μl of Dulbecco's Modified Eagle Medium (DMEM) supplemented with 10% FBS and antibiotic-antimycotic (Life Technologies, CA). Half of the cultures were treated with infliximab (REMICADE®; 0.5 mg/ml; Janssen Biotech, Inc, NJ) and the plate was incubated at 37° C. in a humidified chamber of 95% O2/5% CO2 for 18 hours. Culture supernatants were collected, filtered and stored at −80° C. […] Signal detection and analysis was performed by MAGPIX® (Luminex Corporation, TX).
[…] with 0.5 mg/ml infliximab (an anti-TNFα antibody; therapeutic agent), 100 μM tofacitinib (a Janus kinase (JAK) inhibitor) and an experimental drug (at 10 μM concentration) in accordance with the protocol described above. Following treatment, biopsy samples were obtained and analyzed for cytokine profiles using […].
Additional similar experiments were conducted for different patients using the same or different therapeutic agents, and the results are shown in FIG. 5D-5H.

## Cn1cnc([N+](=O)[O-])c1Sc1ncnc2nc[nH]c12 [azathioprine]
[1]
  Mucosal healing rates: 16.5%

## vedolizumab
[2]; patient ID 13-562 (FIG. 5F)
  changes in cytokine profile: only one cytokine expression down-regulation and four cytokine expression up-regulation
  ex vivo response of patient: ex vivo non-responder

## C[C@@H]1CCN(C(=O)CC#N)C[C@@H]1N(C)c1ncnc2[nH]ccc12 [tofacitinib]
[2]; 100 μM, non-responder group (FIG. 5B)
  cytokines with levels significantly elevated: IL-12p40, IL-12p70, IL-13, IL-17A, IL-2, IL-4, IL-5, and IL-7
[2]; 100 μM, non-responders (FIG. 5B)
  cytokines with attenuation in levels: MCP-1 and TNFα
[2]; 100 μM, responders (FIG. 5B)
  cytokines with levels significantly attenuated: IL-6, IL-8, MCP-1, and TNFα
[2]; patient ID 13-394 (FIG. 5E)
  changes in cytokine profile: three cytokine expression down-regulation
  ex vivo response of patient: ex vivo responder
